Experimental data reported in ChEMBL document CHEMBL1201862, “PubChem BioAssay data set” (2004).
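In this assay, cells in 96-well plates receive the compound at five concentrations for 48 hours. Endpoints are linearly interpolated between the surrounding concentrations. GI50: concentration for 50% inhibition of growth.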 Active and inactive are the calls of the source. No stated cut-off is given here; in the data, active = GI50 up to about 1.1 µM and inactive = higher.

Assays:
Experiment in all cases: DTP human tumour cell line panel, 48 h
OVCAR-8 = system: OVCAR-8
Hs-578T = system: Hs-578T
K562 = system: K562
LOX IMVI = system: LOX IMVI
NCI-H460 = system: NCI-H460
DU-145 = system: DU-145
RXF 393 = system: RXF 393
UACC-62 = system: UACC-62
MDA-N = system: MDA-N
NCI-H23 = system: NCI-H23
T47D = system: T47D
SK-MEL-28 = system: SK-MEL-28
M14 = system: M14
BT-549 = system: BT-549
Malme-3M = system: Malme-3M
OVCAR-5 = system: OVCAR-5
UACC-257 = system: UACC-257
HL-60 = system: HL-60
SF-539 = system: SF-539
SF-268 = system: SF-268
NCI-H226 = system: NCI-H226
UO-31 = system: UO-31
NCI/ADR-RES = system: NCI/ADR-RES
A498 = system: A498
IGROV-1 = system: IGROV-1
PC-3 = system: PC-3
ACHN = system: ACHN
OVCAR-3 = system: OVCAR-3
SF-295 = system: SF-295
MCF7 = system: MCF7
SK-MEL-2 = system: SK-MEL-2
SN12C = system: SN12C
MDA-MB-435 = system: MDA-MB-435
HOP-92 = system: HOP-92
U-251 = system: U-251
CAKI-1 = system: CAKI-1
SK-MEL-5 = system: SK-MEL-5
HOP-62 = system: HOP-62
EKVX = system: EKVX
HCT-15 = system: HCT-15
SNB-75 = system: SNB-75
OVCAR-4 = system: OVCAR-4
TK-10 = system: TK-10
KM12 = system: KM12
COLO 205 = system: COLO 205
SW-620 = system: SW-620
SR = system: SR
HCT-116 = system: HCT-116
786-0 = system: 786-0
NCI-H522 = system: NCI-H522
RPMI-8226 = system: RPMI-8226
SNB-19 = system: SNB-19
HT-29 = system: HT-29
SK-OV-3 = system: SK-OV-3
MDA-MB-231 = system: MDA-MB-231
CCRF-CEM = system: CCRF-CEM
A549 = system: A549
MOLT-4 = system: MOLT-4
HCC 2998 = system: HCC 2998

O=C1C2CCN(CC2)C1(CO)CO
GI50 (OVCAR-8): 28.1 µM (inactive)
GI50 (Hs-578T): 31.3 µM (inactive)
GI50 (K562): 23.6 µM (inactive)
GI50 (LOX IMVI): 16 µM (inactive)
GI50 (NCI-H460): 66.7 µM (inactive)
GI50 (DU-145): 17.3 µM (inactive)
GI50 (RXF 393): 21.1 µM (inactive)
GI50 (UACC-62): 25.1 µM (inactive)
GI50 (MDA-N): 39.1 µM (inactive)
GI50 (NCI-H23): 25.2 µM (inactive)
GI50 (T47D): 19.5 µM (inactive)
GI50 (SK-MEL-28): 26.4 µM (inactive)
GI50 (M14): 18.3 µM (inactive)
GI50 (BT-549): 19.8 µM (inactive)
GI50 (Malme-3M): 18.2 µM (inactive)
GI50 (OVCAR-5): 26 µM (inactive)
GI50 (UACC-257): 18.6 µM (inactive)
GI50 (HL-60): 38.7 µM (inactive)
GI50 (SF-539): 40.9 µM (inactive)
GI50 (SF-268): > 100 µM (inactive)
GI50 (NCI-H226): 28.1 µM (inactive)
GI50 (UO-31): 16.1 µM (inactive)
GI50 (NCI/ADR-RES): 24.5 µM (inactive)
GI50 (A498): > 51.1 µM (inactive)
GI50 (IGROV-1): > 89.5 µM (inactive)
GI50 (PC-3): > 79.1 µM (inactive)
GI50 (ACHN): 17.9 µM (inactive)
GI50 (OVCAR-3): 15.9 µM (inactive)
GI50 (SF-295): > 100 µM (inactive)
GI50 (MCF7): 24.7 µM (inactive)
GI50 (SK-MEL-2): 71.8 µM (inactive)
GI50 (SN12C): 17.6 µM (inactive)
GI50 (MDA-MB-435): 61.5 µM (inactive)
GI50 (HOP-92): 22 µM (inactive)
GI50 (U-251): 41.1 µM (inactive)
GI50 (CAKI-1): 19.2 µM (inactive)
GI50 (SK-MEL-5): 47.4 µM (inactive)
GI50 (HOP-62): > 88.5 µM (inactive)
GI50 (EKVX): 49.7 µM (inactive)
GI50 (HCT-15): 16.1 µM
GI50 (SNB-75): 57.7 µM (inactive)
GI50 (OVCAR-4): 19.4 µM (inactive)
GI50 (TK-10): 17.3 µM (inactive)
GI50 (KM12): 64.7 µM (inactive)
GI50 (COLO 205): 18.7 µM (inactive)
GI50 (SW-620): 18.2 µM (inactive)
GI50 (SR): 20 µM (inactive)
GI50 (HCT-116): 17 µM (inactive)
GI50 (786-0): 28.2 µM (inactive)
GI50 (NCI-H522): 13.1 µM (inactive)
GI50 (RPMI-8226): 17.8 µM (inactive)
GI50 (SNB-19): > 100 µM (inactive)
GI50 (HT-29): 28 µM (inactive)
GI50 (SK-OV-3): 60.7 µM (inactive)
GI50 (MDA-MB-231): 20.9 µM (inactive)
GI50 (CCRF-CEM): 5.06 µM (inactive)
GI50 (A549): 78.3 µM (inactive)
GI50 (MOLT-4): 7.01 µM (inactive)

Cc1nc2ccc(S(=O)(=O)NS(=O)(=O)c3ccc(-c4ccccc4)cc3)cc2c(=O)n1NS(=O)(=O)c1ccc(-c2ccccc2)cc1
GI50 (OVCAR-8): 77.4 µM (inactive)
GI50 (Hs-578T): > 100 µM (inactive)
GI50 (K562): > 100 µM (inactive)
GI50 (LOX IMVI): > 100 µM (inactive)
GI50 (NCI-H460): > 100 µM (inactive)
GI50 (DU-145): > 100 µM (inactive)
GI50 (RXF 393): > 100 µM (inactive)
GI50 (UACC-62): > 100 µM (inactive)
GI50 (HCC 2998): > 100 µM (inactive)
GI50 (MDA-N): > 100 µM (inactive)
GI50 (NCI-H23): > 100 µM (inactive)
GI50 (T47D): > 100 µM (inactive)
GI50 (SK-MEL-28): > 100 µM (inactive)
GI50 (M14): > 100 µM (inactive)
GI50 (BT-549): > 100 µM (inactive)
GI50 (Malme-3M): > 100 µM (inactive)
GI50 (OVCAR-5): > 100 µM (inactive)
GI50 (UACC-257): > 100 µM (inactive)
GI50 (HL-60): > 100 µM (inactive)
GI50 (SF-539): > 100 µM (inactive)
GI50 (SF-268): > 100 µM (inactive)
GI50 (NCI-H226): > 100 µM (inactive)
GI50 (UO-31): > 100 µM (inactive)
GI50 (NCI/ADR-RES): > 100 µM (inactive)
GI50 (A498): 0.753 µM (active)
GI50 (IGROV-1): 38.3 µM (inactive)
GI50 (PC-3): > 100 µM (inactive)
GI50 (ACHN): > 100 µM (inactive)
GI50 (OVCAR-3): > 100 µM (inactive)
GI50 (SF-295): > 100 µM (inactive)
GI50 (MCF7): > 100 µM (inactive)
GI50 (SK-MEL-2): > 100 µM (inactive)
GI50 (SN12C): > 100 µM (inactive)
GI50 (MDA-MB-435): > 100 µM (inactive)
GI50 (HOP-92): 23.4 µM (inactive)
GI50 (U-251): > 100 µM (inactive)
GI50 (CAKI-1): > 100 µM (inactive)
GI50 (SK-MEL-5): > 100 µM (inactive)
GI50 (HOP-62): > 100 µM (inactive)
GI50 (EKVX): 68.2 µM (inactive)
GI50 (HCT-15): > 100 µM
GI50 (SNB-75): > 100 µM (inactive)
GI50 (OVCAR-4): 60 µM (inactive)
GI50 (TK-10): > 100 µM (inactive)
GI50 (KM12): > 100 µM (inactive)
GI50 (COLO 205): > 100 µM (inactive)
GI50 (SW-620): > 100 µM (inactive)
GI50 (SR): > 100 µM (inactive)
GI50 (HCT-116): > 100 µM (inactive)
GI50 (786-0): > 100 µM (inactive)
GI50 (NCI-H522): > 100 µM (inactive)
GI50 (RPMI-8226): > 100 µM (inactive)
GI50 (SNB-19): > 100 µM (inactive)
GI50 (HT-29): > 100 µM (inactive)
GI50 (SK-OV-3): > 100 µM (inactive)
GI50 (MDA-MB-231): > 100 µM (inactive)
GI50 (CCRF-CEM): > 100 µM (inactive)
GI50 (A549): > 100 µM (inactive)
GI50 (MOLT-4): > 100 µM (inactive)
